Laboratory results published in paper PMC10029155, “Harnessing protein sensing ability of electrochemical biosensors via a controlled peptide receptor–electrode interface” (Journal of Nanobiotechnology, 2023).

How the values were obtained:
BSA = test: SWV specificity test against BSA (control); assay type: binding; settings: 125 nM protein, negative control protein
Procedure: (§1) A conventional three-electrode system including an Au working electrode (diameter: 5 mm, surface area: 19.6 mm^2), a Pt counter electrode, and an Ag/AgCl reference electrode, was used for the electrochemical measurements. The EIS, CV, and SWV measurements were conducted in the presence of 2.5 mM ferro/ferricyanide in 1 M KNO3 using a CHI 660E instrument (CH Instruments, Austin, TX, USA) at 25 °C. The EIS measurements were carried out by applying a 10 mV signal with a frequency ranging from 0.01 Hz to 100 kHz. The CV tests were performed between − 0.6 and 0.6 V (scan range) at a scan rate of 100 mVs^−1. […]
(§2) The electrochemical response of the phage sensor for cathepsin B detection was evaluated by the specificity analysis of the developed phage. […] The relative binding affinity of the phage-on-a-sensor with different phage concentrations was measured. […] The binding constants of the developed phage sensor and the relative current change (ΔI%) with different cathepsin B concentrations were measured by SWV.
(§3) To select potential high-affinity peptides from the phage clones, the five synthetic peptides were immobilized on the Au electrode via streptavidin–biotin and MUA-EDC/NHS coupling methods. Each preparation step of the peptide sensor was recorded using CV, EIS, and SWV (Additional file 1: Fig. S3a–c), and the relative binding affinities for cathepsin B were measured by SWV. […]

cathepsin S (CTSS) = test: SWV specificity test against CTSS; assay type: binding; settings: 125 nM protein
Procedure: as §1, §2, §3

cathepsin L1 (CTSL1) = test: SWV specificity test against CTSL1; assay type: binding; settings: 125 nM protein
Procedure: as §1, §2, §3

cathepsin B [1] = target: T1, cathepsin B (Homo sapiens, UniProt P07858); test: SWV electrochemical binding to cathepsin B (relative current change, binding constant); settings: for relative binding affinity to cathepsin B (specificity): 125 nM protein, peptide 50 μM or phage ~10^12 PFU/mL immobilized
T1 construct: Cathepsin B proteins, purified from human liver (~ 27.5 kDa, > 95% purity); purchased ENZO (NY, USA); host or cells: purified from human liver
Procedure: A conventional three-electrode system including an Au working electrode (diameter: 5 mm, surface area: 19.6 mm^2), a Pt counter electrode, and an Ag/AgCl reference electrode, was used for the electrochemical measurements. The EIS, CV, and SWV measurements were conducted in the presence of 2.5 mM ferro/ferricyanide in 1 M KNO3 using a CHI 660E instrument (CH Instruments, Austin, TX, USA) at 25 °C. The EIS measurements were carried out by applying a 10 mV signal with a frequency ranging from 0.01 Hz to 100 kHz. The CV tests were performed between − 0.6 and 0.6 V (scan range) at a scan rate of 100 mVs^−1. The SWV tests were carried out in the potential range of − 0.4 to 0.6 V with an amplitude of 5 mV, frequency of 10 Hz, and a scan interval of 4 mV. The relative current change (ΔI%) was obtained by considering that the peak current decreased after the immobilization of the peptides and/or phages and cathepsin B protein interaction using the following equation:1 ΔI%=I0-I/I0×100 where I0 refers to phage-on-a-sensor, peptide-on-a-sensor, or peptide-on-a-AuNPs/MXene sensor and/or peptide oxidation current before cathepsin B introduction, and I refers to Au-protein oxidation current after cathepsin B introduction.

cathepsin B [2] = target: T1, cathepsin B; test: ELISA binding of peptide-displaying phage clones to immobilized biotinylated cathepsin B; settings: 405 nm
Procedure: A 96 well streptavidin-coated microplate was washed three times with PBS, and the biotinylated cathepsin B was immobilized on it with mild shaking at 25 °C for 1 h. The unbound proteins were removed and blocked with a blocking buffer (5% BSA in NaHCO3) at 25 °C for 1 h. The wells were washed six times with 0.1% PBST, and 100 µL of the amplified phages (10^11 PFU/mL), i.e., the capture receptors, were added and incubated for 1 h at 25 °C. After washing six times with PBST again, the HRP-conjugated anti-M13 monoclonal antibodies (1:5000 dilution with blocking buffer), i.e., the detecting antibodies, were added and incubated at 25 °C for 1 h. The residual solution was discarded, and the microplate was washed again with the same buffer. Freshly prepared HRP substrate (ABTS) was added, and the absorbance was measured at 405 nm using a Multiskan FC microplate photometer (Thermo Scientific, Waltham, MA, USA).
The binding affinities of the selected phage clones for the immobilized cathepsin B were tested by ELISA. For these experiments, 250 nM of cathepsin B or the same amount of BSA as a negative control was immobilized on a well, followed by 10^11 PFU/mL of phage addition. The relative binding affinity of each phage was detected using HRP-conjugated M13 antibodies. […] The CTSB 4-1 clone was the only phage with a high binding affinity to cathepsin B, motivating further characterization of its binding interaction to confirm its specific binding to cathepsin B with increasing cathepsin B concentration (Fig. 2c).

Sequence | relative binding affinity to BSA (specificity) (BSA) | relative binding affinity to CTSS (specificity) (cathepsin S (CTSS)) | relative binding affinity to CTSL1 (specificity) (cathepsin L1 (CTSL1)) | relative binding affinity to cathepsin B (specificity) (cathepsin B [1]) | relative binding affinity for cathepsin B (ELISA) (cathepsin B [2]; 250 nM cathepsin B immobilized, 10^11 PFU/mL phage, HRP-conjugated anti-M13 antibody, ABTS, 25 °C, 1 h, triplicate) | dose response of binding with cathepsin B concentration (cathepsin B [2]; cathepsin B 3.906 to 250 nM, ELISA) | SC50 (cathepsin B [2]; cathepsin B 6.25 to 250 nM, ELISA, printed in picture Fig. 2c) [nM] | relative binding affinity for all the tested proteins, comparison between peptides (cathepsin B [1]; 125 nM cathepsin B, CTSS, CTSL1 or BSA, peptide 50 μM)
HRHRRHRHRKHHK - biotin [CTSB BP4] | non-specific binding affinity | non-specific binding affinity | non-specific binding affinity | much lower binding affinity for cathepsin B than for CTSB BP3 | – | – | – | –
WDMWPSMDWKAE [CTSB 4-1, M13 phage clone displaying …, identified in four rounds of the biopanning] | – | – | – | – | strong cathepsin B binding | dose-dependent binding affinity with increasing cathepsin B concentration | 44.27 | –
WDMWPSMDWKAEK - biotin [CTSB BP1] | – | – | – | did not bind to cathepsin B | – | – | – | comparable to those of CTSB BP2 and CTSB BP5
